Laboratory results from patent publication US12559463B2, “Crystalline forms of a JAK2 inhibitor” (Impact Biomedicines, Inc., priority 2019, dated 2026).
Read-outs that look alike come from different tables or passages of the source.

What was measured:
[1] = pKa of basic sites / additives; assay type: physicochemical; conditions: two basic sites for salt formation
Text: Fifty-three counterions and stoichiometric combinations were selected. Table 1 provides a summary of the additives, pKa values, method of dosing and equivalents dosed for each additive.

[2] = additive used in the salt screen, cited from earlier work

pKa [1] | pKa ([1]; read-out: pKa) | SMILES | pKa ([2]; first pKa value) | pKa ([2]; second pKa value)
6.4 | 9.3 | Cc1cnc(Nc2ccc(OCCN3CCCC3)cc2)nc1Nc1cccc(S(=O)(=O)NC(C)(C)C)c1 [Compound 1, N-tert-butyl-3-[(5-methyl-2-{[4-(2-pyrrolidin-1-ylethoxy)phenyl]amino}pyrimidin-4-yl)amino]benzenesulfonamide] | – | –
– | – | CC1(C(=O)O)CCC(C(=O)O)C1(C)C (stereo not shown) [Camphoric acid] | 4.7 | 5.8
– | – | O=C(O)[C@@H](O)c1ccccc1 [L-Mandelic acid] | 3.4 | –
– | – | CC1(C)C2CCC1(CS(=O)(=O)O)C(=O)C2 (stereo not shown) [Camphor-10-sulfonic acid] | −2.2 | –
– | – | O=C(O)C(O)c1ccccc1 (racemic) [DL-Mandelic acid] | 3.4 | –
